Assay results from PMC6470603, “Design and Synthesis of Matrine Derivatives as Novel Anti-Pulmonary Fibrotic Agents via Repression of the TGFβ/Smad Pathway” (Molecules, 2019).

What was measured:
[1] = tested on: TGF-β1 induced total collagen accumulation in MRC-5 cells; experiment: Sircol collagen assay: inhibition of TGF-β1-induced total collagen accumulation; format: cell-based, human; conditions: for IC50: Homo sapiens, MRC5, 10 ng/mL TGF-β1, 48 h, Sircol collagen assay; for SI, selectivity index (SI = CC50/IC50): MRC-5 cells
Description: Higher SI values indicates better safety profile.
MRC-5 cells in 1 × 10^5 cells/mL density were seeded in TC treated 96-well plates and allowed to reach confluence for 48 h. The cells were then starved using MEM-NEAA containing 0.2% BSA for 24 h. After starvation, the medium was changed to MEM-NEAA supplemented with 0.2% BSA, 100 μM L-Proline, 100 μM Ascorbic acid, with or without 10 ng/mL TGF-β1 (Peprotech) in the presence of vehicle or different concentrations of compounds. After 48 h incubation, the MRC-5 cells were washed with phosphate buffered saline (PBS) and fixed in −20 °C precooled methanol for 10 min. The cells were than washed with PBS before incubation in 0.1% PSR staining solution (0.1% Sirus red in saturated water solution of picric acid) for 1 h. The staining solution was then removed and the cells were washed with 0.1% acetic acid for three times. 200 μL of 0.1 mol/L sodium hydroxide solution were added to each well and the plates were placed on a rocking platform for 1 h. The optical density (OD) values at 550 nm were determined with an Infinite 2000 spectrophotometer.

[2] = Cytotoxicity assay (CCK-8); conditions: human, MRC-5 cells (human fetal lung fibroblasts)
Description: Cytotoxicity of all compounds were also determined against MRC-5 cells, so as to calculate selectivity index (SI, CC50/IC50).
MRC-5 cells in passage between 21 to 26 were used for experiments.
MRC-5 cells were incubated with different concentrations of compounds for 48 h, and then 10 μL of CCK-8 solution were added to each well. The cells were incubated at 37 °C for another 3 h before determining the OD values at 492 nm. DMSO at 0.1% v/v final concentration was used to solubilize the test compounds, except for compound 3b, 3c, and 3e, where 1% v/v DMSO was used to ensure complete solubilization.

MRC-5 fibroblasts = experiment: Scratch (wound healing) assay, TGF-β1-induced fibroblast migration; format: cell-based, human; conditions: 1000 μM, 10 ng/mL TGF-β1, 24 h (TGF-β1 alone 85.0%)
Description: Fibroblast migration is the key event in pulmonary fibrogenesis. […] Inhibition of lung fibroblasts migration is a promising potential therapeutic target for IPF. We performed wound healing assay to investigate the inhibitory effect of 3f and matrine against fibroblast migration (Figure 7).
MRC-5 cells were seeded on 6-well plates and allowed to reach confluence for 48 h. The cell monolayer was gently scratched with a 1 mL pipette tip across the center of the well. After scratching, the cells were washed twice with medium to remove detached cells. The cells were then treated with or without 10 ng/mL TGF-β1 in the presence of vehicle or 10 μM 3f for 24 h. The gap area in wound region was quantitatively evaluated using ImageJ [30] and MRI wound healing tool plugin [31].

O=C1CC(n2ccc3cc([N+](=O)[O-])ccc32)C[C@@H]2[C@H]3CCCN4CCC[C@@H](CN12)[C@@H]34 (stereo partly shown) [3i, 13-(5-nitro-1H-indol-1-yl)-matrine]
IC50 [1]: 14.5 ± 1 µM | SI, selectivity index (SI = CC50/IC50) [1]: 4.5 | CC50 at 48 h [2]: 65.4 ± 3.1 µM

O=C1CC(n2ccc3c([N+](=O)[O-])cccc32)C[C@@H]2[C@H]3CCCN4CCC[C@@H](CN12)[C@@H]34 (stereo partly shown) [3d, 13-(4-nitro-1H-indol-1-yl)-matrine]
IC50 [1]: 4.3 ± 0.4 µM | SI, selectivity index (SI = CC50/IC50) [1]: 7.6 | CC50 at 48 h [2]: 32.8 ± 2.7 µM

COc1ccc2c(ccn2C2CC(=O)N3C[C@@H]4CCCN5CCC[C@@H]([C@H]45)[C@H]3C2)c1 (stereo partly shown) [3e, 13-(5-methoxy-1H-indol-1-yl)-matrine]
IC50 [1]: 68.1 ± 5.5 µM | SI, selectivity index (SI = CC50/IC50) [1]: 1.9 | CC50 at 48 h [2]: 128 ± 1.4 µM

O=C1CC(n2ccc3ccccc32)C[C@@H]2[C@H]3CCCN4CCC[C@@H](CN12)[C@@H]34 (stereo partly shown) [3a, 13-(1H-indol-1-yl)-matrine]
IC50 [1]: 28.3 ± 3.9 µM | SI, selectivity index (SI = CC50/IC50) [1]: 3.8 | CC50 at 48 h [2]: 107 ± 5.9 µM

O=C1CC(n2ccc3cnccc32)CC2C3CCCN4CCCC(CN12)C34 (stereo not shown) [3j, 13-(1H-pyrrolo[3,2-c]pyridin-1-yl)-matrine]
IC50 [1]: 16.7 ± 3.5 µM | SI, selectivity index (SI = CC50/IC50) [1]: 6.8 | CC50 at 48 h [2]: 114 ± 5.9 µM

O=C1CCC[C@@H]2[C@H]3CCCN4CCC[C@@H](CN12)[C@@H]34 [Matrine]
IC50 [1]: 878 ± 68 µM | SI, selectivity index (SI = CC50/IC50) [1]: 2.8 | CC50 at 48 h [2]: 2470 ± 103 µM | closure of wound area over 24 h period (MRC-5 fibroblasts): 56.6%

Cc1cn(C2CC(=O)N3C[C@@H]4CCCN5CCC[C@@H]([C@H]45)[C@H]3C2)c2ccccc12 (stereo partly shown) [3b, 13-(3-methyl-1H-indol-1-yl)-matrine]
IC50 [1]: 39 ± 0.6 µM | SI, selectivity index (SI = CC50/IC50) [1]: 2.4 | CC50 at 48 h [2]: 95.1 ± 6.5 µM

Cc1ccc(=O)n(-c2ccccc2)c1 [Pirfenidone, reference compound]
IC50 [1]: 1320 ± 98 µM | SI, selectivity index (SI = CC50/IC50) [1]: 3.1 | CC50 at 48 h [2]: 4160 ± 239 µM

O=C1CC(N2CCOCC2)C[C@@H]2[C@H]3CCCN4CCC[C@@H](CN12)[C@@H]34 (stereo partly shown) [2d, 13-morpholinocyclohexane-matrine]
IC50 [1]: 138 ± 9.8 µM | SI, selectivity index (SI = CC50/IC50) [1]: 3.7 | CC50 at 48 h [2]: 507 ± 25.3 µM

CNC1CC(=O)N2CC3CCCN4CCCC(C34)C2C1 (stereo not shown) [2a, 13-methylamino-matrine]
IC50 [1]: 65.3 ± 4.2 µM | SI, selectivity index (SI = CC50/IC50) [1]: 9.3 | CC50 at 48 h [2]: 609 ± 29.8 µM

CN(C)C1CC(=O)N2CC3CCCN4CCCC(C34)C2C1 (stereo not shown) [2b, 13-dimethylamino-matrine]
IC50 [1]: 92.1 ± 1.9 µM | SI, selectivity index (SI = CC50/IC50) [1]: 6.8 | CC50 at 48 h [2]: 624 ± 13.2 µM

O=C1CC(n2ccc3ccc(Cl)cc32)C[C@@H]2[C@H]3CCCN4CCC[C@@H](CN12)[C@@H]34 (stereo partly shown) [3l, 13-(6-chloro-1H-indol-1-yl)-matrine]
IC50 [1]: 27 ± 1.4 µM | SI, selectivity index (SI = CC50/IC50) [1]: 1.7 | CC50 at 48 h [2]: 45.8 ± 1.1 µM

O=C1CC(N2CCCC2)C[C@@H]2[C@H]3CCCN4CCC[C@@H](CN12)[C@@H]34 (stereo partly shown) [2c, 13-(pyrrolidine-1-yl)-matrine]
IC50 [1]: 256 ± 22.1 µM | SI, selectivity index (SI = CC50/IC50) [1]: 2.6 | CC50 at 48 h [2]: 676 ± 49.1 µM

COc1cccc2c1ccn2C1CC(=O)N2C[C@@H]3CCCN4CCC[C@@H]([C@H]34)[C@H]2C1 (stereo partly shown) [3c, 13-(4-methoxy-1H-indol-1-yl)-matrine]
IC50 [1]: 44.7 ± 3.6 µM | SI, selectivity index (SI = CC50/IC50) [1]: 1.3 | CC50 at 48 h [2]: 56.7 ± 3.9 µM

N#Cc1ccc2c(ccn2C2CC(=O)N3C[C@@H]4CCCN5CCC[C@@H]([C@H]45)[C@H]3C2)c1 (stereo partly shown) [3h, 13-(5-cyano-1H-indol-1-yl)-matrine]
IC50 [1]: 72.1 ± 4 µM | SI, selectivity index (SI = CC50/IC50) [1]: 2.1 | CC50 at 48 h [2]: 154 ± 11 µM

O=C1CC(n2ccc3cc(Br)ccc32)C[C@@H]2[C@H]3CCCN4CCC[C@@H](CN12)[C@@H]34 (stereo partly shown) [3g, 13-(5-bromo-1H-indol-1-yl)-matrine]
IC50 [1]: 6.5 ± 1.2 µM | SI, selectivity index (SI = CC50/IC50) [1]: 2.8 | CC50 at 48 h [2]: 18.2 ± 0.6 µM

O=C1CC(n2ccc3ccncc32)C[C@@H]2[C@H]3CCCN4CCC[C@@H](CN12)[C@@H]34 (stereo partly shown) [3n, 13-(1H-pyrrolo[2,3-c]pyridin-1-yl)-matrine]
IC50 [1]: 69.5 ± 8.2 µM | SI, selectivity index (SI = CC50/IC50) [1]: 1.2 | CC50 at 48 h [2]: 84.2 ± 2.2 µM

O=C1CC(n2ccc3ccc([N+](=O)[O-])cc32)C[C@@H]2[C@H]3CCCN4CCC[C@@H](CN12)[C@@H]34 (stereo partly shown) [3m, 13-(6-nitro-1H-indol-1-yl)-matrine]
IC50 [1]: 19.3 ± 2.2 µM | SI, selectivity index (SI = CC50/IC50) [1]: 2.8 | CC50 at 48 h [2]: 53.3 ± 1.9 µM

O=C1CC(n2ccc3ccc(F)cc32)C[C@@H]2[C@H]3CCCN4CCC[C@@H](CN12)[C@@H]34 (stereo partly shown) [3k, 13-(6-fluoro-1H-indol-1-yl)-matrine]
IC50 [1]: 23.1 ± 5.3 µM | SI, selectivity index (SI = CC50/IC50) [1]: 3.4 | CC50 at 48 h [2]: 78.1 ± 3.4 µM
